Test: Residual curcumin during simulated shelf life, absorbance at 415 nm
Type: physicochemical
Settings: over a period of 11 days, with respect to time 0
Method: FIG. 3. Is a graph depicting the SBP protective effect. Residual percentage of curcumin (with respect to time 0) during simulated shelf life, without and with protection by SBP. Curcumin was determined by absorbance at 415 nm (maximal absorbance of curcumin) as determined by a UV-Visible light spectrophotometer.

- decrease of curcumin during simulated shelf life: approximately 40%
SMILES: COc1cc(/C=C/C(=O)CC(=O)/C=C/c2ccc(O)c(OC)c2)ccc1O [curcumin]
